What was measured:
Spodoptera litura [1] = assay: Feeding index against larvae of Spodoptera litura in castor leaves =
Spodoptera litura [2] = assay: Antifeedant activity against larvae of Spodoptera litura in castor leaves relative to control; assay type: functional

CC(=O)O[C@@H]1C[C@H]2C(C)(C)C(=O)C=C[C@]2(C)[C@H]2CC[C@@]3(C)[C@H](C4=CC(O)OC4=O)C(=O)[C@H]4O[C@]43[C@@]21C (stereo partly specified) [EPOXY AZADIRADIONE PP]
PFI (Spodoptera litura [1]): 29.4%

C/C=C(\C)C(=O)O[C@H]1C[C@@H](OC(C)=O)[C@@]2(C)CO[C@H]3[C@H]4O[C@@H]5C[C@@H](C6=CC(=O)OC6O)C(C)=C5[C@@]4(C)[C@H](CC(=O)OC)[C@]1(C)[C@@H]32 (stereo partly specified) [SALANNIN PP]
PFI (Spodoptera litura [1]): 25.1%

COC(=O)C[C@H]1[C@]2(C)C3=C(C)[C@H](C4=CCOC4=O)C[C@H]3O[C@@H]2[C@H](OC(C)=O)[C@@H]2[C@]1(C)C(=O)C=C[C@@]2(C)C(=O)OC [NIMBIN MW]
PFI (Spodoptera litura [1]): 42.9%

CC(=O)O[C@@H]1C[C@H]2C(C)(C)C(=O)C=C[C@]2(C)[C@H]2CC[C@@]3(C)[C@H](c4ccoc4)C(=O)[C@H]4O[C@]43[C@@]21C [EPOXYAZADIRADIONE]
PFI (Spodoptera litura [1]): 50.4%

C/C=C(\C)C(=O)O[C@H]1C[C@@H](OC(C)=O)[C@@]2(C(=O)OC)CO[C@H]3[C@@H](O)[C@@](C)([C@]45O[C@@]4(C)[C@H]4C[C@@H]5O[C@@H]5OC=C[C@@]54O)[C@@H]4[C@H](O)OC[C@@]14[C@@H]32 [AZADIRACHTIN H]
PFI (Spodoptera litura [1]): 30.5%

COC(=O)C[C@H]1[C@]2(C)C3=C(C)[C@H](C4=CC(=O)OC4O)C[C@H]3O[C@@H]2[C@H](OC(C)=O)[C@@H]2[C@]1(C)C(=O)C=C[C@@]2(C)C(=O)OC (stereo partly specified) [NIMBIN PP]
PFI (Spodoptera litura [1]): 19.9%

COC(=O)C[C@H]1[C@]2(C)C3=C(C)[C@H](c4ccoc4)C[C@H]3O[C@@H]2[C@@H]2OC[C@]3(C)[C@H](O)C[C@H](OC(=O)C=C(C)C)[C@@]1(C)[C@@H]23
AFI (Spodoptera litura [2]): 52.1%

COC(=O)C[C@H]1[C@]2(C)C3=C(C)[C@H](c4ccoc4)C[C@H]3O[C@@H]2[C@H](OC(C)=O)[C@@H]2[C@]1(C)C(=O)C=C[C@@]2(C)C(=O)OC [NIMBIN]
PFI (Spodoptera litura [1]): 33.7%

C/C=C(\C)C(=O)O[C@H]1C[C@@H](OC(C)=O)[C@@]2(C(=O)OC)CO[C@H]3[C@@H](O)[C@@](C)([C@]45O[C@@]4(C)[C@H]4C[C@@H]5O[C@@H]5OC=C[C@@]54O)[C@H]4[C@]1(CO[C@]4(O)C(=O)OC)[C@@H]32 [AZADIRACTIN]
PFI (Spodoptera litura [1]): 27.5%

CC(=O)O[C@@H]1C[C@H]2C(C)(C)C(=O)C=C[C@]2(C)[C@H]2CC[C@]3(C)C(=CC[C@H]3c3ccoc3)[C@@]21C [AZADIRONE]
PFI (Spodoptera litura [1]): 48.3%

C/C=C(/C)C(=O)O[C@H]1C[C@@H](OC(C)=O)[C@@]2(C)CO[C@H]3[C@H]4O[C@@H]5C[C@@H](c6ccoc6)C(C)=C5[C@@]4(C)[C@H](CC(=O)OC)[C@]1(C)[C@@H]32 [SALANNIN]
PFI (Spodoptera litura [1]): 36.3%

CC(=O)O[C@@H]1C[C@H]2C(C)(C)C(=O)C=C[C@]2(C)[C@H]2CC[C@@]3(C)[C@H](c4ccoc4)OC(=O)[C@H]4O[C@]43[C@@]21C [GEDUNIN]
PFI (Spodoptera litura [1]): 37.3%

CC(=O)O[C@@H]1C[C@H]2C(C)(C)C(=O)C=C[C@]2(C)[C@H]2CC[C@]3(C)C(=CC(=O)[C@H]3c3ccoc3)[C@@]21C [AZADIRADIONE]
PFI (Spodoptera litura [1]): 35.5%

C/C=C(\C)C(=O)O[C@H]1C[C@@H](OC(C)=O)[C@@]2(C)CO[C@H]3[C@H]4O[C@@H]5C[C@@H](C6=CC(O)OC6=O)C(C)=C5[C@@]4(C)[C@H](CC(=O)OC)[C@]1(C)[C@@H]32 (stereo partly specified) [SALANNOLIDE]
PFI (Spodoptera litura [1]): 26.3%

COC(=O)C[C@H]1[C@]2(C)C3=C(C)[C@H](C4=CC(O)OC4=O)C[C@H]3O[C@@H]2[C@H](OC(C)=O)[C@@H]2[C@]1(C)C(=O)C=C[C@@]2(C)C(=O)OC (stereo partly specified) [NIMBINOLIDE]
PFI (Spodoptera litura [1]): 26.7%

C/C=C(\C)C(=O)O[C@H]1C[C@@H](OC(C)=O)[C@@]2(C)CO[C@@H]3[C@@H](O)[C@@](C)([C@]45O[C@@]4(C)[C@H]4C[C@@H]5O[C@@H]5OC=C[C@@]54O)[C@H]4[C@]1(CO[C@]4(O)C(=O)OC)[C@@H]32 [AZADIRACHTIN-D]
PFI (Spodoptera litura [1]): 28.9%

CC(=O)O[C@@H]1[C@H](O)[C@H]2C(C)(C)C(=O)C=C[C@]2(C)[C@H]2CC[C@]3(C)C(=CC[C@H]3c3ccoc3)[C@]12C [NIMONOL]
PFI (Spodoptera litura [1]): 47.3%

C/C=C(\C)C(=O)O[C@H]1C[C@@H](O)[C@@]2(C)CO[C@H]3[C@H]4O[C@@H]5C[C@@H](c6ccoc6)C(C)=C5[C@@]4(C)[C@H](CC(=O)OC)[C@]1(C)[C@@H]32 [DESACETYL SALANNIN]
PFI (Spodoptera litura [1]): 44.67%

CC(=O)O[C@@H]1C[C@H]2C(C)(C)CC(=O)C=C[C@]2(C)[C@H]2CC[C@]3(C)C(=CC[C@H]3c3ccoc3)[C@@]21C [HOMOAZADIRADIONE]
PFI (Spodoptera litura [1]): 60%

CC1(C)C(=O)[C@H]2O[C@H]2[C@@]2(C)C1=C(O)C(=O)[C@]1(C)[C@@H]2CC[C@@]2(C)[C@H](c3ccoc3)C[C@H]3O[C@]321 [CEDRELONE EPOXIDE]
PFI (Spodoptera litura [1]): 43.5%

CC1(C)C(=O)C=C[C@@]2(C)C1=C(O)C(=O)[C@]1(C)[C@@H]2CC[C@@]2(C)[C@H](C3=CO[C@@H]4O[C@H]34)C[C@H]3O[C@]321 [CEDRELONE-22-EPOXIDE]
PFI (Spodoptera litura [1]): 44.2%

From ChEMBL document CHEMBL3045786, “Insect antifeedant activity of tetranortriterpenoids from the Rutales. A perusal of structural relations” (2002)
